The source of these data is ChEMBL document CHEMBL3822445, “Histone demethylating agents as potential S-adenosyl-l-methionine-competitors” (Medchemcomm, 2016).

Activity calls are given as the source filed them. The calls are words filed in the database; no cut-off is given here.

In general, IC50 refers to the concentration needed to halve the response being measured. A higher IC50 goes with lower potency. For orientation: inhibition means the change of the read-out against control, counted positive when it falls.

The test system of one assay is MCF7. In words: Induction of apoptosis in human MCF7 cells assessed as viable cells at 15 uM after 48 hrs by AnnexinV-FITC staining based flow cytometry (reference value: 74.4 +/- 9.1 %). The assay is classed as functional. The following applies: MCF7, 48 h, read-out: Activity. (In general: A flow cytometer gives signals particle by particle.)
For the molecule `Cc1ccc(-c2cn3c(n2)sc2ccccc23)cc1`, the viability at 15 µM came to 61.4%.
As to `CCCCN1C(=O)[C@H]2Cc3c([nH]c4ccccc34)CN2C1=O`, the viability at 15 µM was 70.4%.

System in a further assay: not listed separately
Briefly: Antiproliferative activity against human Ovarian cancer LA#83 cells assessed as cell survival at 20 uM after 72 hrs by MTT assay relative to control. To be noted: read-out: Survival. The assay is classed as functional.
With `Cc1ccc(-c2cn3c(n2)sc2ccccc23)cc1`, the viability at 20 µM was found to be 70.2%.
On the same count and under the same terms, for `CCCCN1C(=O)[C@H]2Cc3c([nH]c4ccccc34)CN2C1=O` the value was 64.7%.

For another assay, the system named is MCF7. Briefly: Cell cycle arrest in human MCF7 cells assessed as accumulation at G2/M phase at 15 uM after 72 hrs by flow cytometry relative to control. Format: functional.
Settings: not given
On to `Cc1ccc(-c2cn3c(n2)sc2ccccc23)cc1`, for which the result was Active.

In the next assay the test system is MCF7. In words: Induction of apoptosis in human MCF7 cells assessed as early apoptotic cells at 15 uM after 48 hrs by AnnexinV-FITC staining based flow cytometry (reference value: 7.8 +/- 5.3 %). The assay is classed as functional.
Settings: not given
With `Cc1ccc(-c2cn3c(n2)sc2ccccc23)cc1`, the Activity came to 18.7%.
Same read-out and setting: for `CCCCN1C(=O)[C@H]2Cc3c([nH]c4ccccc34)CN2C1=O` the value was 12.2%.

The next assay concerns MCF7. Briefly: Induction of apoptosis in human MCF7 cells assessed as late apoptotic cells at 15 uM after 48 hrs by AnnexinV-FITC staining based flow cytometry (reference value: 7.6 +/- 5.9 %). Format: functional.
Settings: not given
On to `Cc1ccc(-c2cn3c(n2)sc2ccccc23)cc1`, for which the Activity was 11.8%.
On the same count and under the same terms, under `CCCCN1C(=O)[C@H]2Cc3c([nH]c4ccccc34)CN2C1=O` stands 11%.

The next assay has as its system MCF7. Briefly: Induction of apoptosis in human MCF7 cells assessed as viable cells at 15 uM after 72 hrs by AnnexinV-FITC staining based flow cytometry (reference value: 60.5 +/- 6 %). The assay is classed as functional. The following applies: MCF7, 72 h, read-out: Activity.
As to `Cc1ccc(-c2cn3c(n2)sc2ccccc23)cc1`, the viability at 15 µM came to 45.2%.
Take `CCCCN1C(=O)[C@H]2Cc3c([nH]c4ccccc34)CN2C1=O`: the viability at 15 µM was found to be 61.2%.

For the next assay, the system named is MCF7. In words: Induction of apoptosis in human MCF7 cells assessed as necrotic cells at 15 uM after 48 hrs by AnnexinV-FITC staining based flow cytometry (reference value: 10.2 +/- 1.9 %).
Settings: not given
Format: functional.
Regarding `Cc1ccc(-c2cn3c(n2)sc2ccccc23)cc1`, the Activity amounted to 8.1%.
Take `CCCCN1C(=O)[C@H]2Cc3c([nH]c4ccccc34)CN2C1=O`: the Activity was determined as 6.4%.

The next assay deals with MCF7. In words: Induction of apoptosis in human MCF7 cells assessed as late apoptotic cells at 15 uM after 72 hrs by AnnexinV-FITC staining based flow cytometry (reference value: 11.8 +/- 2.2 %). The assay is classed as functional.
Settings: not given
Turning to `Cc1ccc(-c2cn3c(n2)sc2ccccc23)cc1`, the Activity amounted to 21%.
Still for that read-out and setting: for `CCCCN1C(=O)[C@H]2Cc3c([nH]c4ccccc34)CN2C1=O` the value was 12.1%.

A further assay has as its system MSTO-211H. Briefly: Antiproliferative activity against human MSTO-211H cells after 48 to 72 hrs by MTT assay. The assay is classed as functional, cell-based.
Settings: not given
Turning to `Cc1ccc(-c2cn3c(n2)sc2ccccc23)cc1`, the IC50 was > 20 µM.
Same read-out and setting: for `CCCCN1C(=O)[C@H]2Cc3c([nH]c4ccccc34)CN2C1=O` the value was > 20 µM.

The next assay deals with MCF7. In words: Inhibition of DNA methylation in human MCF7 cells assessed as reduction in H3K27me3 levels at 15 uM after 48 hrs by Western blot analysis. Format: cell-based.
Settings: not given
In general terms: A western blot detects proteins with antibodies after separation by electrophoresis.
For the molecule `Cc1ccc(-c2cn3c(n2)sc2ccccc23)cc1`, the inhibition entry was “inactive”.
Still for that read-out and setting: for `CCCCN1C(=O)[C@H]2Cc3c([nH]c4ccccc34)CN2C1=O` the value was 60%.

For a further assay, the system named is MCF7. In words: Antiproliferative activity against human MCF7 cells after 48 to 72 hrs by MTT assay. Format: functional, cell-based.
Settings: not given
Turning to `Cc1ccc(-c2cn3c(n2)sc2ccccc23)cc1`, the IC50 was determined as 30.4 µM.
The same measure, in the same setting: for `CCCCN1C(=O)[C@H]2Cc3c([nH]c4ccccc34)CN2C1=O` the value was 32.3 µM.

Another assay has as its system MCF7. In words: Induction of apoptosis in human MCF7 cells assessed as necrotic cells at 15 uM after 72 hrs by AnnexinV-FITC staining based flow cytometry (reference value: 7.6 +/- 1 %). The assay is classed as functional.
Settings: not given
In the case of `Cc1ccc(-c2cn3c(n2)sc2ccccc23)cc1`, the Activity was 4.8%.
Same read-out and setting: under `CCCCN1C(=O)[C@H]2Cc3c([nH]c4ccccc34)CN2C1=O` stands 7.2%.

System in the next assay: not listed separately
In words: Antiproliferative activity against human Ovarian cancer LA#110 cells assessed as cell survival at 20 uM after 72 hrs by MTT assay relative to control. To be noted: read-out: Survival. Format: functional. For orientation: Formazan colour is commonly taken as a measure of viable cells.
As to `Cc1ccc(-c2cn3c(n2)sc2ccccc23)cc1`, the viability at 20 µM turned out to be 77.1%.
Still for that read-out and setting: for `CCCCN1C(=O)[C@H]2Cc3c([nH]c4ccccc34)CN2C1=O` the value was 78%.

Another assay deals with MCF7. Briefly: Induction of apoptosis in human MCF7 cells assessed as early apoptotic cells at 15 uM after 72 hrs by AnnexinV-FITC staining based flow cytometry (reference value: 20.1 +/- 7.3 %). The assay is classed as functional.
Settings: not given
As for `Cc1ccc(-c2cn3c(n2)sc2ccccc23)cc1`, the Activity stood at 29%.
Same read-out and setting: for `CCCCN1C(=O)[C@H]2Cc3c([nH]c4ccccc34)CN2C1=O` the value was 19.5%.

Another assay has as its system MCF7. In words: Inhibition of DNA methylation in human MCF7 cells assessed as reduction in H3K9me3 levels at 15 uM after 48 hrs by Western blot analysis. Format: cell-based.
Settings: not given
For the molecule `Cc1ccc(-c2cn3c(n2)sc2ccccc23)cc1`, the inhibition entry was “inactive”.
With `CCCCN1C(=O)[C@H]2Cc3c([nH]c4ccccc34)CN2C1=O`, the inhibition worked out at 50%.

System in a further assay: not listed separately
In words: Antiproliferative activity against human Ovarian cancer DC#110 cells assessed as cell survival at 20 uM after 72 hrs by MTT assay relative to control. The following applies: read-out: Survival. The assay is classed as functional.
Take `Cc1ccc(-c2cn3c(n2)sc2ccccc23)cc1`: the viability at 20 µM came out at 80.1%.
Turning to `CCCCN1C(=O)[C@H]2Cc3c([nH]c4ccccc34)CN2C1=O`, the viability at 20 µM was found to be 86.4%.

For another assay, the system named is MCF7. Briefly: Cell cycle arrest in human MCF7 cells assessed as accumulation at G0/G1 phase at 15 uM after 24 hrs by flow cytometry relative to control. Format: functional.
Settings: not given
Take `CCCCN1C(=O)[C@H]2Cc3c([nH]c4ccccc34)CN2C1=O`: the Activity stood at 3%.

System in the next assay: not listed separately
Briefly: Antiproliferative activity against human Ovarian cancer DC#83 cells assessed as cell survival at 20 uM after 72 hrs by MTT assay relative to control. The assay is classed as functional. To be noted: read-out: Survival.
On to `Cc1ccc(-c2cn3c(n2)sc2ccccc23)cc1`, for which the viability at 20 µM amounted to 90.3%.
Consider `CCCCN1C(=O)[C@H]2Cc3c([nH]c4ccccc34)CN2C1=O`, for which the viability at 20 µM was determined as 91.2%.

The next assay deals with MCF7. In words: Inhibition of DNA methylation in human MCF7 cells assessed as decrease in 5-methylcytosine level by ELISA.
Settings: not given
Format: cell-based.
As to `Cc1ccc(-c2cn3c(n2)sc2ccccc23)cc1`, the inhibition result was “inactive”.
The same measure, in the same setting: under `CCCCN1C(=O)[C@H]2Cc3c([nH]c4ccccc34)CN2C1=O` stands “Active”.

The next assay addresses T1, Histone-lysine N-methyltransferase EHMT2 (Homo sapiens) (UniProt Q96KQ7).
T1 sequence (whole entry): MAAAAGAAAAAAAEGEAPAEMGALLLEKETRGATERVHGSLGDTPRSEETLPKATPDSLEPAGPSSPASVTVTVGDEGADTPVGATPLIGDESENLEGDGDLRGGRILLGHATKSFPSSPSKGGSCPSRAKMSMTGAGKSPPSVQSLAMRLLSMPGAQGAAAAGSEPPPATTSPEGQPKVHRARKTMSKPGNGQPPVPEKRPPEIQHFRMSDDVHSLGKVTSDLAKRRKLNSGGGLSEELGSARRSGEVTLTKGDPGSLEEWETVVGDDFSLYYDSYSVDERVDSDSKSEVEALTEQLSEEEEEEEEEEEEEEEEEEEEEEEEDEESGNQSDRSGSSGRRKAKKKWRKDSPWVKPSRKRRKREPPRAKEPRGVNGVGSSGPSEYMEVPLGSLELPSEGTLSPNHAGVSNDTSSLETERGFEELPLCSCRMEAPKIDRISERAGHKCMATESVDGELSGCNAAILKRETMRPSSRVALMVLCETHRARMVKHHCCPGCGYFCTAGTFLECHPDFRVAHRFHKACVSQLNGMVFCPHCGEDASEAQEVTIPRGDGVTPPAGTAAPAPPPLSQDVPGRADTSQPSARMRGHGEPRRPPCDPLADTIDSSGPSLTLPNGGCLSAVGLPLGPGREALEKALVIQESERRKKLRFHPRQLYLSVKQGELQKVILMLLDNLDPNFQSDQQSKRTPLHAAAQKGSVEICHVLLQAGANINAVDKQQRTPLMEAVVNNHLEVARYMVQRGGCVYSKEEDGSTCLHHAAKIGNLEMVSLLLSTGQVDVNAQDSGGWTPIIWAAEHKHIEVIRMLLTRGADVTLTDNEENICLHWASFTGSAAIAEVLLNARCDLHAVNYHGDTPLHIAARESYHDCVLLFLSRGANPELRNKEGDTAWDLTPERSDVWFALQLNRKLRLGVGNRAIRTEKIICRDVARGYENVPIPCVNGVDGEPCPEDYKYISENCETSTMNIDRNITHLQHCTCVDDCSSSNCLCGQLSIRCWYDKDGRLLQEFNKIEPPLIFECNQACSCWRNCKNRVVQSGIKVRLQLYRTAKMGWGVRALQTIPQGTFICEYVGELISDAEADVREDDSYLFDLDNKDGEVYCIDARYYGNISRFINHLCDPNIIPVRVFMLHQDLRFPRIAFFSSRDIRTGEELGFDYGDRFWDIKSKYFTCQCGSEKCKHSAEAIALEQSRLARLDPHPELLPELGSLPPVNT
In words: Inhibition of G9a in human MCF7 nuclear extracts assessed as reduction in H3K27 levels at 15 uM after 48 hrs. The assay is classed as cell-based.
Settings: not given
Regarding `Cc1ccc(-c2cn3c(n2)sc2ccccc23)cc1`, the inhibition entry was “inactive”.
The same measure, in the same setting: for `CCCCN1C(=O)[C@H]2Cc3c([nH]c4ccccc34)CN2C1=O` the value was “inactive”.

Another assay has as its target T1, Histone-lysine N-methyltransferase EHMT2 (Homo sapiens). Briefly: Inhibition of G9a in human MCF7 nuclear extracts assessed as reduction in H3K9 levels at 15 uM after 48 hrs.
Settings: not given
Format: cell-based.
Turning to `Cc1ccc(-c2cn3c(n2)sc2ccccc23)cc1`, the inhibition result is “Active”.
On the same count and under the same terms, for `CCCCN1C(=O)[C@H]2Cc3c([nH]c4ccccc34)CN2C1=O` the value was “Active”.

System in another assay: not listed separately
In words: Antiproliferative activity against human H460 cells after 48 to 72 hrs by MTT assay. Format: functional, cell-based. The following applies: NCI-H460.
For the molecule `Cc1ccc(-c2cn3c(n2)sc2ccccc23)cc1`, the IC50 is > 20 µM.
Still for that read-out and setting: for `CCCCN1C(=O)[C@H]2Cc3c([nH]c4ccccc34)CN2C1=O` the value was > 20 µM.

The test system of the next assay is MCF7. Briefly: Inhibition of DNA methylation in human MCF7 cells assessed as decrease in methylation of RARbeta DNA by qPCR method. The assay is classed as cell-based.
Settings: not given
On to `Cc1ccc(-c2cn3c(n2)sc2ccccc23)cc1`, for which the inhibition result is “inactive”.
Still for that read-out and setting: for `CCCCN1C(=O)[C@H]2Cc3c([nH]c4ccccc34)CN2C1=O` the value was “Active”.
